Common to all, as to type: cell-based
Experiment [1] has as its system U937 human histiocytic lymphomas cell line. As to the kind of experiment: MTT assay, U937 cells. The note with it: for IC50 (MTT) / IC50: mean ± SD, n = 4; for IC50: Homo sapiens, U-937. As to the method:
(§1) The CaR-1 human colon cancer cell line (JCRB0207) was a gift from Dr. K. Miyazaki (Kihara Institute for Biological Research, Yokohama, Japan). YOYO-1™ was purchased from Molecular Probes (Eugene, Oreg.). All other chemicals were purchased from Sigma (St. Louis, Mis.). Oligonucleotides were synthesized by a synthesizer (Applied Biosystems, San Jose, Calif.) according to the manufacturer's protocol.
(§2) U937, HL-60 and CaR-1 cells were grown in RPMI 1640 containing 50 units/ml penicillin, 50 μg/ml streptomycin, and 10% FCS at 37° C. in 5% CO2, 95% air. HepG2 cells were grown in Eagle's minimum essential medium (MEM) with 0.1 mM nonessential amino acids, 1 mM sodium pyruvate and Earle's balance solution (BSS). Floating cells were subcultured two to three times a week and adherent cells were removed by trypsinization and subcultured two to four times a month. Initial cell viability was always more than 95% as assessed by the exclusion of trypan blue (Ausubel et al., Current Protocols in Molecular Biology, John Wiley & Sons 1988; 11.5.1-11.5.2). The number of cells was determined in a hemocytometer.
(§3) The following drugs have been tested using the reported peak plasma concentrations (PPCs) achieved during intravenous administration of clinical doses (Werner et al., Cancer Treat Rep 1986; 70:1379-1382). […] The drugs were tested at 0.001, 0.01, 0.1, 1.0 and 10× PPC. Vinblastine was occasionally tested at 100× PPC.
(§4) Cells were suspended in medium supplemented with 10% FCS, and 100 μl of single cell suspension containing 1×10^5 cells were added to the individual wells on 96 well microtiter plates. One hundred μl of anticancer drugs were added to each well to give the final concentrations as indicated above. The plates were incubated at 37° C. in a humidified atmosphere containing 5% CO2 in air for various periods. Twenty μl of 0.25% MTT in PBS was added to each well, and plates were incubated for an additional three hours. After centrifugation, supernatant solutions were removed and 200 μl of dimethyl sulfoxide were added to dissolve formazon products, and the plates were shaken for five minutes on a plate shaker (IS-963, Tomy, Palo Alto, Calif.). The absorbance of the well was read on a microplate spectrophotometer (Thermo max, Molecular Device, Mountain View, Calif.) using wavelength at 560 nm.
(§5) Chemosensitivity was assessed for both continuous drug exposure and transient exposure (two hours). Total cytosolic poly(A)+ mRNA was measured as described in the Methods.
(§6) U937 cells were seeded at a density of 1×10^6 cells/ml in RPMI containing 10% FCS in a 96-well plate for MTT assay (.gradient.,.quadrature.) and a 24-well plate for the mRNA assay (.circle-solid.,.tangle-soliddn.). […] The values indicated in the means±standard error of triplicate determinations from a single experiment. Similar results were reproduced in more than three independent experiments (data not shown). […] MTT and mRNA assays were carried out as described in the Methods. The data obtained from the three-day MTT assay with 1× PPC (x-axis) were compared with those of the 12-hour mRNA assay with 10× PPC (y-axis). FIG. 8D (Total) is a mixture of FIGS. 8A-8C. Each point represents the means of triplicate determinations.
A general note: Tetrazolium dyes change colour on reduction, which living cells bring about.

Experiment [2] has the same test system. Description: total mRNA assay (GENEPLATE, YOYO-1), U937 cells. The following applies: mean ± SD, n = 4; for IC50: Homo sapiens, U-937. As to the method:
as §1, §2
The drugs were tested at 0.001, 0.01, 0.1, 1.0 and 10× PPC. Vinblastine was occasionally tested at 100× PPC.
(§7) Detailed procedures were described in our previous publication (Tominaga et al., Clin. Chem. 1996; 42:11, 1750-1757). In brief, 1 ml of cell suspension containing 5×10^5 cells were plated to each well of 12-well tissue culture plates for various periods, and each drug was exposed continuously or for two hours. Harvested cultured cells were washed with PBS one to two times. Cells were then resuspended in 200 μl of diethylpyrocarbonate (DEPC) -treated lysis buffer (10 mM Tris, pH7.5, 1 mM EDTA, 0.5M NaCl, 0.5% NP-40 and 20 mM VRC for five minutes on ice, then immediately centrifuged at 15,000 xg at 4° C. for five minutes. Fifty μl each of the supernatant was applied to the GENEPLATE™ (oligonucleotide-immobilized microplate) (Mitsuhashi et al., Nature 1992, 357:519-520). After one hour incubation at room temperature, unbound non-mRNA was removed by aspiration and washed with a low salt buffer (10 mM Tris, pH 7.6, 1 mM EDTA, 0.1 M naCl) three times. Fifty μl of YOYO-1™ in the final dilution of 1:1000 in TAE buffer (40 mM Tris-acetate, pH 8.0, 1 mM EDTA) was added to each well, and the fluorescence intensity of each well was measured by a fluorescent plate reader (CytoFlour™ 2300, Millipore, Bedford, Mass.) with excitation and emission wavelengths of 485 nm (bandwidth 20 nm) and 530 nm (bandwidth 25 nm), respectively, as previously described (Glazer et al., Nature 1992;359:859-861 and Ogura et al., Biotechniques 1994; 18:231-232).
as §5, §6

Experiment [3] concerns CaR-1 human colon cancer cell line. As to the kind of experiment: MTT assay, CaR-1 cells. The following applies: mean ± SD, n = 4; for IC50: Homo sapiens. On the procedure:
as §1, §2, §3, §4, §5

For experiment [4], the system named is HepG2 human hepatocellular line. Description: total mRNA assay (GENEPLATE, YOYO-1), HepG2 cells. The following applies: mean ± SD, n = 4; for IC50: Homo sapiens. On the procedure: as §1, §2, §3, §7, §5
Experiment [5] has as its system HL-60 human promyelocytic leukemia cell line. As to the kind of experiment: total mRNA assay (GENEPLATE, YOYO-1), HL-60 cells. The note with it: mean ± SD, n = 4; for IC50: Homo sapiens, HL-60. On the procedure: as §1, §2, §3, §7, §5
Experiment [6] concerns CaR-1 human colon cancer cell line. Description: total mRNA assay (GENEPLATE, YOYO-1), CaR-1 cells. The following applies: mean ± SD, n = 4; for IC50: Homo sapiens. On the procedure:
as §1, §2, §3, §7, §5

Experiment [7] relates to HepG2 human hepatocellular line. Description: MTT assay, HepG2 cells. The note with it: mean ± SD, n = 4; for IC50: Homo sapiens. On the procedure:
as §1, §2, §3, §4, §5

The subject of experiment [8] is HL-60 human promyelocytic leukemia cell line. Description: MTT assay, HL-60 cells. The following applies: mean ± SD, n = 4; for IC50: Homo sapiens, HL-60. On the procedure:
as §1, §2, §3, §4, §5

Setting [9] is: U937, continuous exposure 72 hours.
[10] abbreviates: U937, transient exposure 2 hours.
Where [11] appears, read: CaR-1, continuous exposure 72 hours.
[12] abbreviates: CaR-1, transient exposure 2 hours.
Setting [13] is: HepG2, continuous exposure, printed 82 hours.
Setting [14] is: HepG2, transient exposure 2 hours.
[15] abbreviates: HL60, continuous exposure 72 hours.
The mark [16] stands for this setting: HL60, transient exposure 2 hours.

Converted amounts (≈) assume the structure as drawn.

Take `N.N.[Cl][Pt][Cl]` [Cisplatin, cisplatin]: in experiment [1] (U937, 10× PPC, continuous exposure), the “time after drug treatment at which similar reduction was observed, MTT assay” value amounted to 48 h. Further, the “IC50 (MTT)” value in experiment [1] (setting [9]) is 1.77 ± 0.05 µg/mL; in experiment [1] (setting [10]), 22.65 ± 0.03 µg/mL; in experiment [3] (setting [11]), 3.08 ± 0.54 µg/mL; in experiment [3] (setting [12]), more than 20 µg/mL; in experiment [7] (setting [13]) it was 8.86 ± 0.40 µg/mL; in experiment [7] (setting [14]), more than 20 µg/mL. In addition, the “IC50 (MTT)” value in experiment [8] (setting [15]) amounted to 1.14 ± 0.01 µg/mL; in experiment [8] (setting [16]) it was 12.68 ± 0.30 µg/mL. In addition, the “IC50 (mRNA)” value in experiment [2] (setting [9]) is 1.58 ± 0.39 µg/mL; in experiment [2] (setting [10]) it was 18.52 ± 4.69 µg/mL; in experiment [4] (setting [13]) it was 9.81 ± 0.64 µg/mL; in experiment [4] (setting [14]), more than 20 µg/mL; in experiment [5] (setting [15]) it was 1.21 µg/mL; in experiment [5] (setting [16]), 9.30 µg/mL. Also, the “IC50 (mRNA)” value is 3.09 ± 0.34 µg/mL in experiment [6] (setting [11]) and more than 20 µg/mL in experiment [6] (setting [12]).

Broadly, the IC50 is the concentration at which inhibition is half-maximal. A low value points to higher potency. Consider `CO[C@@]12[C@H](COC(N)=O)C3=C(C(=O)C(C)=C(N)C3=O)N1C[C@@H]1N[C@@H]12` [Mitomycin C, mitomycin C], for which the IC50 worked out at 0.29 ± 0.01 µg/mL (≈ 0.867 µM) in experiment [1] (setting [9]); 2.46 ± 0.04 µg/mL (≈ 7.36 µM) in experiment [1] (setting [10]); 0.23 ± 0.03 µg/mL (≈ 0.688 µM) in experiment [2] (setting [9]); 2.01 ± 0.11 µg/mL (≈ 6.01 µM) in experiment [2] (setting [10]); 2.12 ± 0.08 µg/mL (≈ 6.34 µM) in experiment [3] (setting [11]); 21.3 µg/mL (≈ 63.7 µM) in experiment [3] (setting [12]). The IC50 is 1.89 ± 0.06 µg/mL (≈ 5.65 µM) in experiment [4] (setting [13]); 36.9 µg/mL (≈ 110 µM) in experiment [4] (setting [14]); 0.22 ± 0.01 µg/mL (≈ 0.658 µM) in experiment [5] (setting [15]); 2.29 µg/mL (≈ 6.85 µM) in experiment [5] (setting [16]); 2 ± 0.16 µg/mL (≈ 5.98 µM) in experiment [6] (setting [11]); 21.3 ± 0.95 µg/mL (≈ 63.7 µM) in experiment [6] (setting [12]). Also, the IC50 in experiment [7] (setting [13]) is 2.08 ± 0.09 µg/mL (≈ 6.22 µM); in experiment [7] (setting [14]) it was 24.2 ± 0.81 µg/mL (≈ 72.4 µM); in experiment [8] (setting [15]), 0.045 µg/mL (≈ 0.135 µM); in experiment [8] (setting [16]), 1.34 ± 0.01 µg/mL (≈ 4.01 µM).

As for `CC[C@]1(O)C[C@@H]2CN(CCc3c([nH]c4ccccc34)[C@@](C(=O)OC)(c3cc4c(cc3OC)N(C)[C@H]3[C@@](O)(C(=O)OC)[C@H](OC(C)=O)[C@]5(CC)C=CCN6CC[C@]43[C@@H]65)C2)C1` [Vinblastine, vinblastine], the IC50 in experiment [1] (setting [9]) is less than 0.0005 µg/mL; in experiment [1] (setting [10]) it was 0.034 ± 0.003 µg/mL (≈ 0.0419 µM); in experiment [2] (setting [9]), less than 0.0005 µg/mL; in experiment [2] (setting [10]), 0.029 ± 0.001 µg/mL (≈ 0.0358 µM); in experiment [3] (setting [11]), 22.2 ± 14.4 µg/mL (≈ 27.3 µM); in experiment [3] (setting [12]), more than 50 µg/mL. Further, the concentration for half-maximal inhibition (IC50) in experiment [4] (setting [13]) is 3.45 ± 0.63 µg/mL (≈ 4.25 µM); in experiment [4] (setting [14]), 34.6 ± 1.75 µg/mL (≈ 42.7 µM); in experiment [5] (setting [15]), less than 0.0005 µg/mL; in experiment [5] (setting [16]), 0.031 µg/mL (≈ 0.0382 µM); in experiment [6] (setting [11]), 34.9 ± 4.8 µg/mL (≈ 43 µM); in experiment [6] (setting [12]), more than 50 µg/mL. Further, the IC50 in experiment [7] (setting [13]) was 32.6 ± 8.46 µg/mL (≈ 40.2 µM); in experiment [7] (setting [14]), more than 50 µg/mL; in experiment [8] (setting [15]), less than 0.0005 µg/mL; in experiment [8] (setting [16]), 0.026 ± 0.001 µg/mL (≈ 0.0321 µM).

For the origin of these results see patent publication US5976797A, “Method for quantifying total mRNA with poly(A)-complementary oligonucleotide-immobilized microtiter plate” (Hitachi Chemical Co., Ltd., priority 1996, dated 1999).
